Results published in patent US20230295141A1, “FXR SMALL MOLECULE AGONIST, THE PREPARATION AND USE THEREOF” (Cascade Pharmaceuticals, Inc., priority 2022, published 2023).
Where two headings read alike, the source gives them in different places.

Target: T1, FXR (Homo sapiens, UniProt Q96RI1)
T1 construct: expressed in transfected cells; host or cells: HEK293T
T1 sequence (Q96RI1 212-476 isoform Q96RI1-1 limits assumed): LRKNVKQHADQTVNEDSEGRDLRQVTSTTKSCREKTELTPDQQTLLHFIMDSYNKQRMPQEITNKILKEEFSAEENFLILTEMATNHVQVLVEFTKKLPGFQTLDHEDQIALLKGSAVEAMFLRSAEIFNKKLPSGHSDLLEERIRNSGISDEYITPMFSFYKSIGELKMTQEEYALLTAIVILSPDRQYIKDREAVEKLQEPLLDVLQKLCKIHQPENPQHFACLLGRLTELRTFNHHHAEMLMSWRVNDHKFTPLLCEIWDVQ
Test: FXR agonistic activity by GAL4-FXR-LBD reporter gene (Dual-Glo luciferase) detection in HEK293T cells
Assay type: cell-based
Text: Methods for Detecting FXR Agonistic Activity of Compounds Based on Reporter Gene Activity Detection Methods: The pGAL4-FXR-LBD and pG5-Luc plasmids used in the reporter gene detection system were constructed according to conventional molecular cloning methods, including main steps: the FXR (NM_001206979.2) cDNA sequence corresponding to the amino acid sequence of FXR-LBD (212-476AA) was inserted into pGAL4 vector between BamHI and Notl restriction sites using PCR technology to obtain pGAL4-FXR-LBD; pG5-Luc and phRL-TK plasmids were donated by Shanghai Institute of Materia Medica, Chinese Academy of Sciences; the plasmid was transformed into DH5a Escherichia coli by the CaC12 method, and after further culture and amplification, the corresponding plasmid DNA was purified and obtained with a plasmid extraction kit (TIANGEN, #D107). HEK293T cells were seeded in 96-well plates at a density of 1×10^4/well one day before plasmid transfection. Cell transfection was performed according to the instructions of the transfection reagent FuGENE® HD (Promega, #E2311), including main steps: […] 0.25 uL of FuGENE® HD was added, mixed well and let stand for 5 min at room temperature; then 10 uL of this mixture was added to the cell well containing 100 uL of culture medium. […] Then the diluted compounds were added to the cell culture medium for treatment for 24 h. 2 duplicate wells were set up in total. […] After cells were treated with compounds for 24 h, detections were performed according to the instructions of the Dual-Glo® Luciferase Assay System (Promega, #E2940), including main steps: […] then 40 uL of Dual-Glo® Stop & Glo® reagent were added and shaken at room temperature for 10 min; the luminescence signal value of Renilla luciferase (Renilla-Luc) was detected by the MD i3x multifunctional microplate reader; The ratio of Firefly-Luc/Renilla-Luc was used as the activating activity of the compound on FXR, and normalized by the ratio of the solvent DMSO group. The dose- response curves were fitted with four parameters using GraphPad Prism 6.0 software, and EC50 values were calculated.

[1] = Cellular Level Activity EC50(nM) of FXR, HEK293T cells, pGAL4-FXR-LBD/pG5-Luc reporter, 24 h treatment
[2] = HEK293T cells, pGAL4-FXR-LBD/pG5-Luc reporter, 24 h treatment, read-out: Cellular Level Activity EC50(nM) of FXR
[3] = HEK293T reporter gene assay, read-out: EC50 values (FXR agonistic activity)
[4] = EC50 values (FXR agonistic activity), HEK293T reporter gene assay

Structure (SMILES) | EC50 [2] | EC50 [1] | further results
O=c1[nH]c(-c2ccc(N3[C@@H]4CC[C@H]3C[C@@H](OCc3c(-c5c(Cl)cccc5Cl)noc3C3CC3)C4)cc2F)no1 [Control 1, reference compound] | – | 5 to 10 nM | –
[2H]C([2H])(O[C@H]1C[C@H]2CC[C@@H](C1)N2c1ccc(-c2noc(=O)[nH]2)c(F)c1)c1c(-c2c(Cl)cccc2Cl)noc1C1CC1 [Example 3] | – | < 5 nM | EC50 [4]: < 5 nM; FXR agonistic / cellular level activity, in words (HEK293T reporter gene assay, comparison with LJN452 and Control 1): significantly improved activity
[2H]C(O[C@H]1C[C@H]2CC[C@@H](C1)N2c1ccc(-c2noc(=O)[nH]2)c(F)c1)c1c(-c2c(Cl)cccc2Cl)noc1C1CC1 (stereo partly drawn) [Example 4] | – | < 5 nM | EC50 [4]: < 5 nM
[2H]C([2H])(O[C@H]1C[C@H]2CC[C@@H](C1)N2c1ccc(-c2noc(=O)[nH]2)c(C(F)(F)F)c1)c1c(-c2c(Cl)cccc2Cl)noc1C1CC1 [Example 7] | 5 to 10 nM | – | –
[2H]C([2H])(O[C@H]1C[C@H]2CC[C@@H](C1)N2c1ccc(-c2noc(=O)[nH]2)c(F)c1)c1c(-c2ccccc2C(F)(F)F)noc1C1CC1 [Example 8] | 5 to 10 nM | – | –
[2H]C([2H])(O[C@H]1C[C@H]2CC[C@@H](C1)N2c1ccc(-c2noc(=O)[nH]2)c(F)c1)c1c(-c2ccccc2OC(F)(F)F)noc1C1CC1 [Example 9] | 5 to 10 nM | – | –

Further lines, with some results ahead:

EC50 [2] | Structure (SMILES) | EC50 [1] | further results
< 5 nM | [2H]C([2H])(O[C@H]1C[C@H]2CC[C@@H](C1)N2c1ccc(-c2noc(=O)[nH]2)cc1)c1c(-c2c(Cl)cccc2Cl)noc1C1CC1 [Example 1] | – | EC50 [3]: < 5 nM
< 5 nM | [2H]C([2H])(O[C@H]1C[C@H]2CC[C@@H](C1)N2c1ccc(-c2noc(=O)[nH]2)nc1)c1c(-c2c(Cl)cccc2Cl)noc1C1CC1 [Example 2] | – | EC50 [3]: < 5 nM
5 to 10 nM | [2H]C([2H])(O[C@H]1C[C@H]2CC[C@@H](C1)N2c1ccc(-c2noc(=O)[nH]2)c(C)c1)c1c(-c2c(Cl)cccc2Cl)noc1C1CC1 [Example 5] | – | –
5 to 10 nM | [2H]C([2H])(O[C@H]1C[C@H]2CC[C@@H](C1)N2c1ccc(-c2noc(=O)[nH]2)c(OC)c1)c1c(-c2c(Cl)cccc2Cl)noc1C1CC1 [Example 6] | – | –
